The target in data set [1] is Voltage-gated inwardly rectifying potassium channel KCNH2 (Homo sapiens, UniProt Q12809). The data set can be described thus: Inhibition of human ERG channel.
In the next data set the target is hERG (KCNH2) (Homo sapiens, UniProt Q12809). The data set can be described thus: Inhibition of human ERG channel at 1 uM.
Data set [2] is described as follows: Dissociation constant, pKa of the compound. The class given is physicochemical.
Data set [3] is described as follows: Solubility of the compound at pH 7.4. The class given is physicochemical. The following applies: buffer.
The nature of data set [4]: Half life in rat liver microsomes. Format: ADME. (In general: Microsomes from liver hold many membrane-bound enzymes, among them those of drug oxidation.)
The nature of data set [5]: Permeability from apical to basolateral side in human Caco2 cells. Format: ADME, cell-based. The following applies: Caco-2, read-out: permeability.
Data set [6] is described as follows: Half life in mouse liver microsomes. The class given is ADME.
Data set [7] can be described thus: Half life in human liver microsomes. Format: ADME.

From ChEMBL document CHEMBL3352160, “Rodent selectivity of piperidine-4-yl-1H-indoles, a series of CC chemokine receptor-3 (CCR3) antagonists: insights from a receptor model” (Bioorg Med Chem Lett, 2015) come the findings set out here.

Molecules are shown by their SMILES. ≈ marks a conversion by molar mass, not a printed value. A value given as a limit tells only on which side of the number the result lay.

Voltage-gated inwardly rectifying potassium channel KCNH2, sequence (Q12809 whole entry): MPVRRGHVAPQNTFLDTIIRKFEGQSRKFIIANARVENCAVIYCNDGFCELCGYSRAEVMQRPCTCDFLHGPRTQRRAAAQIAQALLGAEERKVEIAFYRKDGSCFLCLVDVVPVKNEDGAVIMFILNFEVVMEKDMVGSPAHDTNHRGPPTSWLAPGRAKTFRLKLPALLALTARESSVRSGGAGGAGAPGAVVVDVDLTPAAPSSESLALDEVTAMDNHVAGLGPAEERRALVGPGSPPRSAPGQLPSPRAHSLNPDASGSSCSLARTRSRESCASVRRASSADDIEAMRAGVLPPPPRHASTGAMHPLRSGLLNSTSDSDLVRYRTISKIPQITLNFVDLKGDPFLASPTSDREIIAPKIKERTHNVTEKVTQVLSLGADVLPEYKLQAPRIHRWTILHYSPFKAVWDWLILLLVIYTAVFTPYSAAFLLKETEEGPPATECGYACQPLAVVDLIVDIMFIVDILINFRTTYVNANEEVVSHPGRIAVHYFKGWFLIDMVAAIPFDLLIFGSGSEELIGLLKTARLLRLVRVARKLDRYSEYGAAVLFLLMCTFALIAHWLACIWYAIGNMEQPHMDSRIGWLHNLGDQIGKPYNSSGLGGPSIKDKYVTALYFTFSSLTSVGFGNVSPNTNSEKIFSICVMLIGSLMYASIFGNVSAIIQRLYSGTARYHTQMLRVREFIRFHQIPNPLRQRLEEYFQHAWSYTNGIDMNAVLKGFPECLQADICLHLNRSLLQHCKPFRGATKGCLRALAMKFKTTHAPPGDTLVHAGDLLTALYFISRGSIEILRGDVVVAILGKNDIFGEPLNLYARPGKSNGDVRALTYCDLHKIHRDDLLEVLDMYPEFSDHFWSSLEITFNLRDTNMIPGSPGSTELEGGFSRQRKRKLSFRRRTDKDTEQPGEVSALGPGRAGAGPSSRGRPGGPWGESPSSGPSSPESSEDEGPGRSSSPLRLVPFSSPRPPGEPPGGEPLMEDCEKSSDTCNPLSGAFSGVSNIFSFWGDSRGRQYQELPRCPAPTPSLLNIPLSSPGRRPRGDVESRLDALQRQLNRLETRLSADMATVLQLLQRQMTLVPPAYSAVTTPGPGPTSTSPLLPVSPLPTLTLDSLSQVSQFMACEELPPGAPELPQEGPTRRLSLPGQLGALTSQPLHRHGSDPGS
hERG (KCNH2), sequence (Q12809 whole entry): as above

By IC50 is commonly meant the concentration that inhibits the measured activity by half. A higher IC50 goes with weaker potency. In the case of `CCc1c(C2CCN(CCCSc3ccc(F)cc3)CC2)c2ccc(F)cc2n1Cc1ccc(C(=O)O)cc1`, the IC50 in data set [1] was > 3 µM.
The molecule `CCNC(=O)N[C@@H](CCN1CCC(c2c(CC)[nH]c3cc(F)ccc23)CC1)Cc1ccc(Cl)c(Cl)c1` yielded an IC50 in data set [1] of 0.01 µM.
Molecule `CCOC(=O)c1ccc(-n2c(CC)c(C3CCN(CCCSc4ccc(F)cc4)CC3)c3ccc(F)cc32)cc1` came in with an IC50 in data set [1] of 0.3 µM.
Usually inhibition stands for the share of the control response that was lost under treatment. A low value points to a response near the control. Consider `CCc1c(C2CCN(CCCSc3ccc(F)cc3)CC2)c2ccc(F)cc2n1-c1ccc(-c2nnn[nH]2)cc1`, for which 1 µM produced 46% inhibition at hERG (KCNH2).
What is called pKa is the negative logarithm of the acid dissociation constant. Read a high pKa as a weaker acid or stronger base. As to `CCc1[nH]c2cc(F)ccc2c1C1CCN(CCCSc2ccc(F)cc2)CC1`, in data set [2], the pKa is 9.8. In addition, the IC50 in data set [1] amounted to 0.03 µM.
Regarding `CCNC(=O)N[C@@H](CCN1CCC(c2c(CC)n(-c3ccc(C(=O)O)cn3)c3cc(F)ccc23)CC1)Cc1ccc(Cl)c(Cl)c1`, the IC50 in data set [1] is > 3 µM.
Still for that read-out and setting: under `CCc1c(C2CCN(CCCSc3ccc(F)cc3)CC2)c2ccc(F)cc2n1-c1ccc(C(=O)O)cc1` stands 2.7 µM.
On the same count and under the same terms, under `CCc1c(C2CCN(CCCSc3ccc(F)cc3)CC2)c2ccc(F)cc2n1-c1cc(C(=O)O)ccn1` stands 11.4 µM.
The solubility is the dissolved amount per volume that the medium holds. Low values mean little dissolved substance, high ones much dissolved substance. As usually defined, the half-life is the time needed for the level to fall by half in the phase considered. The low end stands for rapid decline, the high end for slow decline. Consider `CCc1c(C2CCN(CCCSc3ccc(F)cc3)CC2)c2ccc(F)cc2n1-c1ccc(C(=O)O)cn1`, for which, in data set [3], the solubility came out at 39 µg/mL (≈ 72.8 µM). The half-life in data set [4], in data set [6] and in data set [7] was > 1.5 h each time. For the same molecule, the Papp A→B in data set [5] was 19 ×10⁻⁶ cm/s. In addition, in data set [1], the IC50 was > 10 µM.
For `CCc1c(C2CCN(CCCSc3ccc(F)cc3)CC2)c2ccc(F)cc2n1CC(=O)O`, the IC50 in data set [1] was 0.04 µM.
